The nature of series [1]: Viability (propidium iodide staining), Jurkat. The class given is cell-based. Particulars: human, Jurkat cells, 500 nM. On the procedure: (§1) Propidium iodide (PI) cannot normally cross the cell membrane; it is thus excluded by viable cells but not from dying or dead cells, having a damaged membrane, where it intercalates into double-stranded nucleic acids and fluoresces when excited at 488 nm.
(§2) The cells are pelleted by gentle centrifugation 1200 rpm/5 min/4° C., then the supernatant is discarded and replaced by 1 mL of fresh medium. One hundred microliters of propidium iodide (40 μg/mL) are added to 400 μL of the cell suspension in a FACS tube and viability is measured by flow cytometry as the percentage of cells whose fluorescence recorded on FL-3 channel is comprised between 0 and 2.
(§3) Viability and cell cycle profile, tested with compound (01), at 500 nM: […]

Series [2] concerns lymphoid and myeloid tumor cells. Briefly: Viability and cell cycle profile, conclusion for lymphoid and myeloid tumor cells. The class given is cell-based. Particulars: 500 nM; apoptotic cell cycle profile. The protocol:
as §1, §2
The cells are pelleted by gentle centrifugation 1200 rpm/5 min/4° C., then the supernatant is discarded and the cells are fixed with 1 mL of PBS/Ethanol 70% overnight at −20° C. The tubes are then centrifuged during 5 minutes at 1200 rpm and the supernatant is removed. The pellet is then re-suspended in 450 μL of PBS before 50 μL of RNAse (1 mg/mL) and 5 μL of propidium iodide (2 mg/mL) are added. Each tube is left 30 minutes at 37° C. and immediately analysed by flow cytometry after incubation.
as §3

The test system of series [3] is human lung cancer NCI-H460 cells (NSCLC). The series can be described thus: Inhibition of tumor growth in vivo, NCI-H460 xenograft. The arrangement: species or system Swiss nude mice. The protocol: FIG. 2: Inhibition of tumor growth in vivo.
This graph represents the growth of tumor size (by reference to the initial size of the tumor) grafted to mice receiving different treatments during 15 days.
Rhombus: evolution of the growth of the tumor measured in mice receiving the vehicle (without active ingredient) intra-peritoneally (2QD)
Triangle: evolution of the growth of the tumor measured in mice receiving the compound (01) intra-peritoneally at a dosage of 18 mg/kg (2QD).
Circle: evolution of the growth of the tumor measured in mice receiving taxol intra-peritoneally at 8 mg/kg (Q3D×5; d1; d4; d7; d10; d13).
Cross: evolution of the growth of the tumor measured in mice receiving a combination of compound (01) at a dosage of 18 mg/kg 2QD and taxol at a dosage of 8 mg/kg Q3D×5 intra-peritoneally.
For this experiment, Swiss nude mice received a subcutaneous xenograft of 5×10^6 human lung cancer NCI-H460 cells (NSCLC). The percentage of growth of the tumor size versus tumor size at the beginning of treatment is plotted during 15 days for mice receiving four different treatments (12 mice per group of treatment).
The first treatment corresponds to a control. The mice were given the vehicule intra-peritoneally, 2QD.
Composition of the vehicule: 10% DMSO; 10% PEG-400; 30% (EtOH/Cremophor (1/2)); 50% sterile water.
The second treatment corresponds to the administration of a compound of the invention, compound (01), at a dosage of 18 mg/kg 2QD.
The third treatment corresponds to the administration of Taxol at a dosage of 8 mg/kg Q3D×5; d1; d4; d7; d10; d13.
The fourth treatment corresponds to the administration of a combination of compound (01) at a dosage of 18 mg/kg 2QD and of Taxol at a dosage of 8 mg/kg Q3D×5.

For series [4], the target named is T1, interaction between 6×His-Bcl-xL and GST-BF8 (Homo sapiens, UniProt Q07817).
T1 construct: made in house; host or cells: E. coli
Briefly: Pull down assay, Bcl-xL/BF8 in vitro interaction. The class given is binding. Particulars: 50 μM, 5% DMSO; Western blot. The protocol:
FIG. 3: Inhibition of the interaction between Bcl-xL and BF8, a peptide aptamer that targets the hydrophobic groove of BCL-2 family members. […]
C+: 6×His-Bcl-xL captured by GST-BF8, in presence of 5% DMSO. (02): 6×His-Bcl-xL captured by GST-BF8, in presence of 50 μM of compound 02 (in 5% DMSO). (01): 6×His-Bcl-xL captured by GST-BF8, in presence of 50 μM of compound 01 (in 5% DMSO).
A peptide aptamer (dubbed BF8) has been selected against the anti-apoptotic protein Bfl1, member of the BCL-2 family. […] Two lines of evidence indicate that BF8 binds the hydrophobic groove of anti-apoptotic BCL-2-like proteins. First, the amino-acid sequence of its variable region bears similarities with the sequence of the BH3 domains of pro-apoptotic members of the BCL-2 family (such as Bak or Bax), known to bind the anti-apoptotic proteins via this hydrophobic groove. Second, BF8 no longer binds a mutated variant of Bfl-1 that bears an amino-acid substitution within the said hydrophobic groove.
A Bcl-xL/BF8 in vitro interaction assay was developed to examine the capacity of the compounds of the invention to disrupt this interaction by competition with the peptide aptamer. 6×His-Bcl-xL and GST-BF8 recombinant fusion proteins were expressed in E. coli and purified using affinity chromatography. […]

What is called viability is a per cent measure of how many cells are alive, often set against a control. Lower therefore signals more harm to the cells.

T1 sequence (Q07817 whole entry): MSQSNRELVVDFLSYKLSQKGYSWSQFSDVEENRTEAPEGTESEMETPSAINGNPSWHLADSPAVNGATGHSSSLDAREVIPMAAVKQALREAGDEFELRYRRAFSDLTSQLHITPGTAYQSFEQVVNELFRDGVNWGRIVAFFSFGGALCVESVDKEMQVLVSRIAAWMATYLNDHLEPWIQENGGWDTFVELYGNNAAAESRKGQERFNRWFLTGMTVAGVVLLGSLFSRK

Compound `COc1cc(NC(=S)NC(=O)/C=C/c2ccco2)ccc1-c1cc2ccccc2oc1=O` [Compound 01, (2E)-3-(2-furyl)-N-({[3-methoxy-4-(2-oxo-2H-chromen-3-yl)phenyl]amino}carbonothioyl)acrylamide] came in with a viability at 48 h, 0.5 µM in series [1] (48 h) of 4%. In addition, in series [1] (72 h), the viability at 72 h, 0.5 µM was 1%. For the same compound, the “Effect on lymphoid and myeloid tumor cells” value in series [2] is “cytotoxic effect”. The “Growth of lung tumor xenograft” value in series [3] (18 mg/kg 2QD intra-peritoneally, 15 days) is “inhibits the growth”. For the same compound, in series [3] (NCI-H460 xenograft), the “Dose dependence of the tumor growth inhibition” value was “dose-dependent”. Further, in series [3] (compound (01) 18 mg/kg 2QD plus taxol 8 mg/kg Q3D×5, intra-peritoneally), the “Efficacy in reducing the tumour growth when combined with taxol” value is given as “enhanced”. Moreover, in series [4], the “Inhibition of the in vitro interaction between 6×His-Bcl-xL and GST-BF8” value is listed as “inhibit”.

(Values after patent publication US20090203685A1, “ANTI-PROLIFERATIVE COMPOUNDS FROM A 3-ARYL-COUMARINE OR 3-ARYL-QUINOLIN-2-ONE AND USES THEREOF” (EOS (ETHICAL ONCOLOGY SCIENCE) S.P.A., priority 2006, published 2009).)
